From patent publication US20110281815A1, “Parental formulations of gemcitabine derivatives” (CLAVIS PHARMA AS, priority 2009, published 2011)

How the values were obtained:
[1] = buffer, pH 7.4
[2] = drug load / particle formation of gemcitabine-5′-elaidate in alternative formulations; type: physicochemical
Description: Particle formation without the use of phospholipids was not successful. Gemcitabine-5′-elaidic acid ester was dissolved in ethanol in a weight ratio of 1:24. The mixture was stirred until all solid material was dissolved.
The ethanol solution was thereafter injected into a […] with vigorous mixing. The weight ratio of ethanol solution to the glycerol solution was 1:12. The mixture appeared to contain conglomerates as determined by visual inspection.
Mixed micellar formulations with phospholipids and non-ionic surfactants were not successful in preparation of high drug load formulations. Mixed micelles were prepared using a 1:1 weight ratio of egg lecithin:Tween 20 for a final concentration of 50 mg/mL dissolved solids.
Liposomal formulations with egg lecithin and oleic acid were not successful in preparation of high drug load formulations. Liposomes were prepared by means of dissolution of gemcitabine-5′-elaidate, egg lecithin, and oleic acid in a molar ratio of 1:14.4:2 in ethanol. The solvent was evaporated and the residual solids dispersed into 2.6% glycerol in water using an Ultraturrax followed by high pressure homogenization. Stable formulations could be achieved up to 3 mg/mL gemcitabine-5′-elaidate.
(§1) It was investigated if the unexpectedly high concentration (15 mg/mL-60 mg/mL) of the active compound achieved in the formulations described in Examples 1 through 7, and under section 6, Manufacture of the Formulation, was unique to a chemical compound as shown in Formula (I) or if the method was of a more general nature. The structurally similar compound elacytarabine (ara-C-5′-elaidic acid ester) as shown in Formula (II) was used as a related model substance. This model substance contains the same 5′-elaidic acid ester moiety as found in Formula (I) (R1=R3=H, R2=elaidate), and the same cytosine nucleoside ring system. The minor difference between the compounds described in Formula (I) and Formula (II) is the substitution at the 2′ position of the ribose ring for Formula (I) contains geminal fluorines, while Formula (II) contains H and OH.

[3] = system: pancreas, colon and ovarian cancer; test: phase I clinical study: preliminary antitumor activity; type: in vivo, human
Description: (§2) The intravenous formulation of gemcitabine-5′-elaidic acid ester as described in Example 1 was used in a phase I, first in human clinical study. The aims of this study were to determine the safety, toxicity, MTD (Maximum Tolerated Dose) and the RD (Recommended Dose) of gemcitabine-5′-elaidic acid ester, to describe its pharmacokinetic (PK) characteristics, and to assess its preliminary antitumor activity.
(§3) Gemcitabine-5′-elaidic acid ester was administered on days (d) 1, 8 and 15 every 4 week by a 30 min IV infusion. The dose range was from 30 to 1600 mg/m2/d. 43 patients were enrolled and the RD was established at 1250 mg/m^2/d. […] Stabilisation of disease (>3 months) reported in 7 patients (pancreas, colon and ovarian cancer) lasting between 3.5 to >8 months.

[4] = human, in vivo
Description: as §2, §3
Gemcitabine-5′-elaidic acid ester was detected in plasma up to 24 hrs post-dosing. […] Urinary excretion of the main metabolite, dFdU, during the first 24 hrs was 48-71% of the dose.

[5] = human, in vivo; remark: listed apart in the source
Description: as §2, §3

[6] = rapid deamination to dFdU; cited from earlier work
[7] = formulation of elacytarabine model substance with egg PC/egg PG; type: physicochemical
Description: as §1
It is concluded that the Formula I compound provides unexpectedly unique attributes of high loading and stability to the described lipid based formulations.

## CCCCCCCC/C=C/CCCCCCCC(=O)OC[C@H]1O[C@@H](n2ccc(N)nc2=O)C(F)(F)[C@@H]1O [gemcitabine-5′-elaidic acid ester]
[1]
  half life (hydrolytic degradation): approximately 30 minutes
[2]; 1:1 egg lecithin:Tween 20, 50 mg/mL dissolved solids
  maximal concentration of gemcitabine-5′-elaidate in mixed micelles: less than 5 mg/mL
[2]; egg lecithin and oleic acid liposomes, 2.6% glycerol in water
  concentration up to which stable liposomal formulations could be achieved: up to 3 mg/mL
[2]; egg lecithin with glycholic acid as surfactant
  maximal concentration of gemcitabine-5′-elaidate in mixed micelles: 2 mg/mL
[2]; ethanol solution injected into water for injection, homogenization attempted
  particle formation without phospholipids: not capable of forming stable particles
[3]; 43 patients enrolled, pancreas, colon and ovarian cancer
  stabilisation of disease (>3 months), number of patients: 7 patients
[3]; one patient with ovarian cancer
  reduction in tumor mass: 28.3%
[4]
  AUC for gemcitabine (dFdC) exposure versus intravenous gemcitabine at comparable dose levels: significantly higher
[4]; iv
  time detected in plasma post-dosing: up to 24 hrs
[5]
  most frequent toxicities: nausea, fatigue, vomiting and anorexia
[5]; iv
  RD (Recommended Dose): 1250 mg/m^2/d
  recommended dose for intravenous administration: 1250 mg/m^2

## Nc1ccn([C@@H]2O[C@H](CO)[C@@H](O)C2(F)F)c(=O)n1 [gemcitabine, 2′,2′-difluorodeoxy-cytidine]
[6]
  half-life of gemcitabine in plasma: approximately 10 minutes

## CCCCCCCC/C=C/CCCCCCCC(=O)OC[C@H]1O[C@@H](n2ccc(N)nc2=O)[C@@H](O)[C@@H]1O [Elacytarabine, ara-C-5′-elaidic acid ester]
[7]; Egg PC/egg PG, 10 mg/mL
  Particle size (Z-.avg): (Z-.avg) 97 nm
  outcome after filtration: Large lipid agglomerates
[7]; Egg PC/egg PG, 15 mg/mL, storage at 2-8° C.
  outcome upon storage: Precipitation
[7]; Egg PC/egg PG, elacytarabine concentration 10 mg/mL
  Final content: Final content 8 mg/ml.
[7]; Egg PC/egg PG, elacytarabine concentration 15 mg/mL
  Final content: 12 mg/mL
[7]; Egg PC/egg PG, elacytarabine concentration 20 mg/mL, during homogenisation
  formulation outcome: Precipitation during
[7]; Egg PC/egg PG, elacytarabine concentration 30 mg/mL, during solvent injection
  formulation outcome: Precipitation
[7]; Formula II compound included in excess of 20 mg/mL
  formulation outcome: precipitation during processing
[7]; target concentrations of less than 15 mg/mL, precipitation and agglomeration
  formulation outcome on storage: unstable during storage
